For the assay, the target named is Human factor Xa (Homo sapiens, UniProt P00742). Kind of assay: Xa Assay. The format is biochemical. On the set-up: purchased Enzyme Research Laboratories, South Bend Ind. As to conditions: for % Inhibition Factor Xa (100 µM): inhibitor at 100 µM.
Sequence of Human factor Xa (P00742 41-179 limits assumed): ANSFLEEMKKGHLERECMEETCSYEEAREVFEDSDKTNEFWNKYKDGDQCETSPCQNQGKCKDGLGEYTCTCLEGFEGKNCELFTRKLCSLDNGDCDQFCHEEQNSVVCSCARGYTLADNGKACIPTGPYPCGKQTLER
Sequence of Human factor Xa (P00742 235-488 limits assumed): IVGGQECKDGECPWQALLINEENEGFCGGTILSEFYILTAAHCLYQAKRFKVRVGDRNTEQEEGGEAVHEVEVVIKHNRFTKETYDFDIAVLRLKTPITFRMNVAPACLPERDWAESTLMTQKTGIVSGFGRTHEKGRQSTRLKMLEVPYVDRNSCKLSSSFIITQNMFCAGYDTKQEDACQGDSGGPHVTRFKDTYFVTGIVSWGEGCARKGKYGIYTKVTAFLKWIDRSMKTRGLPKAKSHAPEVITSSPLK

As for `N=C(N)c1ccc(CNC(=O)Cn2c(-c3ccsc3)c(Cl)nc(NCCc3ccccc3)c2=O)cc1` [Example 1517-13], the “% Inhibition Factor Xa (30 µM)” value (at 30 µM) is 0%.
Turning to `N=C(N)c1ccc(CNC(=O)Cn2c(-c3ccccc3)c(Cl)nc(NCCc3ccncc3)c2=O)cc1` [Example 19], the “% Inhibition Factor Xa (30 µM)” value (at 30 µM inhibitor) is given as 22% @ 30.
On the same count and under the same terms, with `N=C(N)c1ccc(CNC(=O)Cn2c(-c3ccccc3)c(Cl)nc(NCCc3cccnc3)c2=O)cc1` [1471-16] the figure was 23%.
Consider `CNc1nc(Cl)c(-c2cccc(N)c2)n(CC(=O)NCc2ccc(C(=N)N)cc2)c1=O` [1543-05], for which the “% Inhibition Factor Xa (30 µM)” value (at 30 µM) came to 14%.
As to `N=C(N)c1ccc(CNC(=O)Cn2c(-c3cccc4ccccc34)c(Cl)nc(NCCc3ccccc3)c2=O)cc1` [Example 80], the “% Inhibition Factor Xa (30 µM)” value (at 30 µM inhibitor) turned out to be 29% @ 30.
Still for that read-out and setting: as for `N=C(N)c1ccc(CNC(=O)Cn2c(-c3ccccc3)c(Cl)nc(NCCc3ccc(Cl)cc3)c2=O)cc1` [1471-10], the figure is 45%.
For the molecule `N=C(N)c1ccc(CNC(=O)Cn2c(-c3ccccc3)c(Cl)nc(NCc3ccccc3Cl)c2=O)cc1` [1507-03], the “% Inhibition Factor Xa (30 µM)” value (at 30 µM inhibitor) is 21%.
The same measure, in the same setting: with `CCc1c(Cl)nc(NCCc2ccc(Cl)cc2)c(=O)n1CC(=O)NCc1ccc(C(=N)N)cc1` [1471-58] the figure was 0%.
Take `CC(C)Nc1nc(Cl)c(-c2cccnc2)n(CC(=O)NCc2ccc(C(=N)N)cc2)c1=O` [Example 75]: the “% Inhibition Factor Xa (30 µM)” value (at 30 µM inhibitor) was 9%.
Still for that read-out and setting: with `CCOc1ccccc1CNc1nc(Cl)c(-c2ccccc2)n(CC(=O)NCc2ccc(C(=N)N)cc2)c1=O` [1512-11] the figure was 5%.
In the case of `O=C(Cn1c(-c2ccc(Cl)cc2)c(Cl)nc(NCCN2CCOCC2)c1=O)NCCc1ccncc1` [Example E-0031], the “% Inhibition Factor Xa (100 µM)” value is on record as 0%.
Take `CC(C)N(C)c1nc(Cl)c(-c2ccccc2)n(CC(=O)NCc2ccc(C(=N)N)cc2)c1=O` [Example 1517-31]: the “% Inhibition Factor Xa (30 µM)” value (at 30 µM) came out at 0%.
On to `CC(C)Nc1nc(Cl)c(-c2cccc(C(=O)O)c2)n(CC(=O)NCc2ccc(C(=N)N)cc2)c1=O` [Example 65], for which the “% Inhibition Factor Xa (30 µM)” value (at 30 µM inhibitor) is given as 12%.
Consider `CCCCNc1nc(Cl)c(-c2cccc(N)c2)n(CC(=O)NCc2ccc(C(=N)N)cc2F)c1=O` [1543-36], for which the “% Inhibition Factor Xa (30 µM)” value (at 30 µM) stood at 15%.
`CC(C)Nc1ncc(-c2cccc(N)c2)n(CC(=O)NCc2ccc(C(=N)N)c(F)c2)c1=O` [Example 43]: the “% Inhibition Factor Xa (30 µM)” value (at 30 µM inhibitor) was determined as 0%.
As to `N=C(N)c1ccc(CNC(=O)Cn2c(-c3ccccc3)c(Cl)nc(NC3CCCCCC3)c2=O)cc1` [1512-16], the “% Inhibition Factor Xa (30 µM)” value (at 30 µM inhibitor) was determined as 10%.
Consider `N=C(N)c1ccc(CNC(=O)Cn2c(-c3cccc(N)c3)c(Cl)nc(NCCCN3CCCC3)c2=O)cc1` [1543-27], for which the “% Inhibition Factor Xa (30 µM)” value (at 30 µM) is reported as 27%.
Take `N=C(N)c1ccc(CNC(=O)Cn2c(-c3ccccc3)c(Cl)nc(NCCc3ccccn3)c2=O)cc1` [1512-47]: the “% Inhibition Factor Xa (30 µM)” value (at 30 µM inhibitor) was determined as 13%.
Same read-out and setting: with `Cc1c(Cl)nc(NCc2ccccc2)c(=O)n1CC(=O)NCc1ccc(C(=N)N)cc1` [1471-1] the figure was 10%.
In the case of `CCCNc1nc(Cl)c(-c2ccccc2)n(CC(=O)NCc2ccc(C(=N)N)cc2)c1=O` [Example 1517-33], the “% Inhibition Factor Xa (30 µM)” value (at 30 µM) turned out to be 0%.
As to `CC(C)Nc1nc(Cl)c(-c2ccc(Cl)nc2)n(CC(=O)NCc2ccc(C(=N)N)cc2F)c1=O` [Example 74], the “% Inhibition Factor Xa (30 µM)” value (at 30 µM inhibitor) was determined as 13%.
The same measure, in the same setting: with `N=C(N)c1ccc(CNC(=O)Cn2c(-c3cccc(N)c3)cnc(NC3CCC3)c2=O)cc1` [Example 92] the figure was 18% @ 30; with `N=C(N)c1ccc(CNC(=O)Cn2c(-c3ccc4ccccc4c3)c(Cl)nc(NCCc3ccccc3)c2=O)cc1` [Example 82], 32% @ 30; with `N=C(N)c1ccc(CNC(=O)Cn2c(-c3ccccc3)c(Cl)nc(NCc3ccc(C(F)(F)F)cc3F)c2=O)cc1` [1512-26], 5%.
For the molecule `CCc1c(Cl)nc(NCCc2cccnc2)c(=O)n1CC(=O)NCc1ccc(C(=N)N)cc1` [1471-64], the “% Inhibition Factor Xa (30 µM)” value (at 30 µM inhibitor) stood at 2%.
Same read-out and setting: with `CN1CCCC1CCNc1nc(Cl)c(-c2ccccc2)n(CC(=O)NCc2ccc(C(=N)N)cc2)c1=O` (centres unmarked) [1512-46] the figure was 10%; with `N=C(N)c1ccc(CNC(=O)Cn2c(-c3ccccc3)c(Cl)nc(NCc3ccc(Cl)cc3)c2=O)cc1` [1507-46], 8%.
In the case of `C[Si](C)(C)CNc1nc(Cl)c(-c2ccccc2)n(CC(=O)NCc2ccc(C(=N)N)cc2)c1=O` [Example 1517-36], for the setting “at 30 µM”, the “% Inhibition Factor Xa (30 µM)” value was 0%.
`N=C(N)c1ccc(CNC(=O)Cn2c(-c3ccccc3)c(Cl)nc(NC3CCCc4ccccc43)c2=O)cc1` (centres unmarked) [1507-16]: the “% Inhibition Factor Xa (30 µM)” value (at 30 µM inhibitor) is listed as 18%.
Still for that read-out and setting: with `N=C(N)c1ccc(CNC(=O)Cn2c(-c3c(Cl)cccc3Cl)c(Cl)nc(NCc3ccccc3)c2=O)cc1` [Example 1517-06] the figure was 0%; with `N=C(N)c1ccc(CNC(=O)Cn2c(-c3ccccc3)c(Cl)nc(NCCCCc3ccccc3)c2=O)cc1` [1507-43], 21%; with `N=C(N)c1ccc(CNC(=O)Cn2c(-c3ccc4c(c3)OCO4)c(Cl)nc(NCc3ccccc3)c2=O)cc1` [1471-41], 34%.
With `N=C(N)c1ccc(CNC(=O)Cn2c(-c3cccc(Cl)c3)c(Cl)nc(NCCN3CCOCC3)c2=O)cc1` [1471-28], the “% Inhibition Factor Xa (30 µM)” value (at 30 µM inhibitor) is listed as 8%.
In the case of `COc1ccc(-c2c(Cl)nc(NCCc3ccccc3)c(=O)n2CC(=O)NCCc2ccncc2)cc1` [Example E-0100], the “% Inhibition Factor Xa (100 µM)” value amounted to 6%.
Consider `CC(C)CCNc1nc(Cl)c(-c2ccccc2)n(CC(=O)NCc2ccc(C(=N)N)cc2)c1=O` [Example 1517-40], for which, where the note is “at 30 µM”, the “% Inhibition Factor Xa (30 µM)” value is 0%.
Turning to `N=C(N)c1ccc(CNC(=O)Cn2c(-c3cccc(Cl)c3)c(Cl)nc(NCCc3cccnc3)c2=O)cc1` [1471-32], under “at 30 µM inhibitor”, the “% Inhibition Factor Xa (30 µM)” value was 25%.
As to `N=C(N)c1ccc(CNC(=O)Cn2c(-c3ccc(Cl)cc3)c(Cl)nc(NCCc3cccc(Cl)c3)c2=O)cc1` [1471-22], the “% Inhibition Factor Xa (30 µM)” value (at 30 µM inhibitor) is on record as 28%.
Still for that read-out and setting: with `CCc1c(Cl)nc(NCCc2ccncc2)c(=O)n1CC(=O)NCc1ccc(C(=N)N)cc1` [1471-61] the figure was 0%.
Still for that read-out and setting: as for `N=C(N)c1ccc(CNC(=O)Cn2c(-c3ccccc3)c(Cl)nc(NCCC3=CCCCC3)c2=O)cc1` [1507-17], the figure is 16%.
In the case of `N=C(N)c1ccc(CNC(=O)Cn2c(-c3ccccc3)c(Cl)nc(NC3CCc4ccccc43)c2=O)cc1` (centres unmarked) [1507-02], the “% Inhibition Factor Xa (30 µM)” value (at 30 µM inhibitor) came to 9%.
As for `N=C(N)c1ccc(CNC(=O)Cn2c(-c3ccccc3)c(Cl)nc(NCc3cc(F)cc(F)c3)c2=O)cc1` [1512-39], the “% Inhibition Factor Xa (30 µM)” value (at 30 µM inhibitor) was determined as 4%.
As to `N=C(N)c1ccc(CNC(=O)Cn2c(-c3ccccc3)c(Cl)nc(NCc3ccccc3)c2=O)cc1` [1471-9], the “% Inhibition Factor Xa (30 µM)” value (at 30 µM inhibitor) was 29%.
In the case of `N=C(N)c1ccc(CNC(=O)Cn2c(-c3cccc(N)c3)c(Cl)nc(NCCN3CCCCC3)c2=O)cc1` [1543-15], the “% Inhibition Factor Xa (30 µM)” value (at 30 µM) turned out to be 41%.
`N=C(N)c1ccc(CNC(=O)Cn2c(-c3cccc(N)c3)c(Cl)nc(NCCCn3ccnc3)c2=O)cc1` [1543-07]: under “at 30 µM”, the “% Inhibition Factor Xa (30 µM)” value was determined as 19%.
On to `N=C(N)c1ccc(CNC(=O)Cn2c(-c3c(Cl)cccc3Cl)c(Cl)nc(NCCc3cccc(Cl)c3)c2=O)cc1` [Example 1517-24], for which the “% Inhibition Factor Xa (30 µM)” value (at 30 µM) is reported as 0%.
`C[C@@H](C(=O)NCc1ccc(C(=N)N)cc1)n1c(-c2ccccc2)c(Cl)nc(NC2CCC2)c1=O` [Example 1517-09]: the “% Inhibition Factor Xa (30 µM)” value (at 30 µM inhibitor) is listed as 0%.
On the same count and under the same terms, with `N=C(N)c1ccc(CNC(=O)Cn2c(-c3ccccc3)c(Cl)nc(NCc3cc(Cl)ccc3Cl)c2=O)cc1` [1512-35] the figure was 4%; with `N=C(N)c1ccc(CNC(=O)Cn2c(-c3ccc4c(c3)OCO4)c(Cl)nc(NCCc3ccccc3)c2=O)cc1` [1471-47], 22%.
Still for that read-out and setting: as for `CC(C)Nc1nc(Cl)c(-c2cccc(N)c2)n(CC(=O)NCc2ccc(C(=N)N)c(F)c2)c1=O` [Example 42], the figure is 0%.
For the molecule `N=C(N)c1ccc(CNC(=O)Cn2c(-c3cccc(N)c3)c(Cl)nc(NC3CC3)c2=O)c(F)c1` [1543-33], where the note is “at 30 µM”, the “% Inhibition Factor Xa (30 µM)” value is given as 14%.
In the case of `CC(C)Nc1nc(Cl)c(-c2cc(N)ccc2F)n(CC(=O)NCc2ccc(C(=N)N)cc2F)c1=O` [Example 73], the “% Inhibition Factor Xa (30 µM)” value (at 30 µM inhibitor) stood at 0%.
On the same count and under the same terms, as for `N=C(N)c1ccc(CNC(=O)Cn2c(-c3ccc(Cl)cc3)c(Cl)nc(NCCc3ccccc3)c2=O)cc1` [1471-23], the figure is 36%; as for `CCc1c(Cl)nc(NCCc2ccccc2)c(=O)n1CC(=O)NCc1ccc(C(=N)N)cc1` [1471-63], 2%.
Still for that read-out and setting: with `CCCCC(CC)Nc1nc(Cl)c(-c2ccccc2)n(CC(=O)NCc2ccc(C(=N)N)cc2)c1=O` (centres unmarked) [1512-12] the figure was 5%; with `N=C(N)c1ccc(CNC(=O)Cn2c(-c3ccc4c(c3)OCO4)c(Cl)nc(NCCc3cccnc3)c2=O)cc1` [1471-48], 17%; with `CCCCNc1nc(Cl)c(-c2ccccc2)n(CC(=O)NCc2ccc(C(=N)N)cc2)c1=O` [1512-14], 7%.
Still for that read-out and setting: as for `N=C(N)c1ccc(CNC(=O)Cn2c(-c3ccc4c(c3)OCO4)c(Cl)nc(NCCc3cccc(Cl)c3)c2=O)cc1` [1471-46], the figure is 21%; as for `N=C(N)c1ccc(CNC(=O)Cn2c(-c3ccccc3)c(Cl)nc(NCc3cc(F)ccc3F)c2=O)cc1` [1512-36], 9%.
For the molecule `N=C(N)c1ccc(CNC(=O)Cn2c(-c3ccccc3)c(Cl)nc(NCCN3CCOCC3)c2=O)cc1` [1471-12], the “% Inhibition Factor Xa (30 µM)” value (at 30 µM inhibitor) is reported as 9%.
As for `N=C(N)c1ccc(CNC(=O)Cn2c(-c3cccc(Cl)c3)c(Cl)nc(NCCc3ccccc3)c2=O)cc1` [1471-31], the “% Inhibition Factor Xa (30 µM)” value (at 30 µM inhibitor) is on record as 17%.
In the case of `CN(C)CCNc1nc(Cl)c(-c2cccc(N)c2)n(CC(=O)NCc2ccc(C(=N)N)cc2)c1=O` [1543-09], the “% Inhibition Factor Xa (30 µM)” value (at 30 µM) came out at 12%.
In the case of `C[C@@H](C(=O)NCc1ccc(C(=N)N)cc1)n1c(-c2ccccc2)c(Cl)nc(NCCc2ccccc2)c1=O` [Example 1517-15], the “% Inhibition Factor Xa (30 µM)” value (at 30 µM) is given as 0%.
